Earlier results as cited in patent US20250387420A1, “Prevention of Nausea and Vomiting from Antibody-Drug Conjugates and other Long-Acting Emetogenics” (Helsinn Healthcare SA, priority 2024, published 2025).

Experiments:
NK1 receptor = NK1 receptor (Homo sapiens, UniProt P25103)
[1] = 48 hours after a single 300 mg oral netupitant dose; Gilmore and Bernareggi 2019
[2] = test system: patients receiving cisplatin-based chemotherapy; settings: 168 hours following highly emetogenic cisplatin-based therapy

Chain of NK1 receptor (P25103 whole entry): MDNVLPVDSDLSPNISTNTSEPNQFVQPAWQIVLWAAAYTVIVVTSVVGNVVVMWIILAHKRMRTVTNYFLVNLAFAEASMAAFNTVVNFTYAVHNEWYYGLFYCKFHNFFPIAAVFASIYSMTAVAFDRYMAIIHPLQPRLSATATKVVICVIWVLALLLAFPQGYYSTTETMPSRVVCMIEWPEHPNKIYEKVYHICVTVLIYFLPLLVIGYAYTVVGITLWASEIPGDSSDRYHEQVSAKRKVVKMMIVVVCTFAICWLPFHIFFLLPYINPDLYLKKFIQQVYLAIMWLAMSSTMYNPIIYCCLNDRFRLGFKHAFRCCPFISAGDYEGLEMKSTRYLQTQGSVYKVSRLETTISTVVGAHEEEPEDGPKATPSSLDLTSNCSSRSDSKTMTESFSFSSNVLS

SMILES | NK1 receptor occupancy rates necessary for efficacy (NK1 receptor; Bergstrom et al. 2004) [%] | plasma concentration at which 90% receptor occupancy is achieved (NK1 receptor; Spinelli et al. 2013) [ng/mL] | plasma concentration [1] | comparative efficacy versus aprepitant [2]
C[C@@H](O[C@H]1OCCN(Cc2n[nH]c(=O)[nH]2)[C@H]1c1ccc(F)cc1)c1cc(C(F)(F)F)cc(C(F)(F)F)c1 [aprepitant] | > 90 | – | – | –
Cc1ccccc1-c1cc(N2CCN(C)CC2)ncc1N(C)C(=O)C(C)(C)c1cc(C(F)(F)F)cc(C(F)(F)F)c1 [netupitant] | – | 225 | below 100 ng/mL | favorable comparative efficacy to aprepitant
